Each structure is given as a SMILES string. Where “and” joins values, the source holds several entries; their conditions need not be identical. Equal values may be shown once.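 Each compound was tested at five concentrations against cells in 96-well plates for 48 hours. At the GI50, growth is halved. TGI is the concentration that stops growth completely.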 A value given as a limit tells only on which side of the number the result lay.

Test systems include MALME-3M melanoma; SNB-19 CNS; NCI-H522 lung; DU-145 prostate; U251 CNS; HCT-15 colon; HS 578T breast; SK-MEL-5 melanoma.
Assay in all cases: NCI anticancer screen, dose series, 48 h

As for `CC1=C([Se]CC(OC(=O)[C@@H](CSSC(C)(C)C)NC(=O)C(C)(C)C)C(=O)NCCCCCC(=O)OCc2ccccc2)C(=O)c2ccccc2C1=O` (stereo partly specified), the GI50 was 2.49 µM with MALME-3M melanoma; 1.09 µM in the assay with SNB-19 CNS; 1.69 µM with NCI-H522 lung; 2.13 µM in the assay on DU-145 prostate; 1.25 µM in the assay on U251 CNS; 3.2 µM in the assay with HCT-15 colon. Also, the GI50 was 2.18 µM in the assay with HS 578T breast and 1.89 µM with SK-MEL-5 melanoma. Also, the TGI in the assay with MALME-3M melanoma is 5.15 µM; in the assay on SNB-19 CNS it was 2.56 µM; with NCI-H522 lung, 3.21 µM; in the assay with DU-145 prostate, 4.51 µM; in the assay with U251 CNS, 2.81 µM; with HCT-15 colon, 12.9 µM. Also, the TGI in the assay with HS 578T breast is 5.56 µM; in the assay on SK-MEL-5 melanoma, 3.34 µM.

As for `COc1ccc(C(=O)c2ccc(OC)cc2OC)cc1`, the GI50 in the assay on MALME-3M melanoma is 5.83 µM; in the assay with SNB-19 CNS, 6.12 µM; in the assay with NCI-H522 lung, 1.06 µM; in the assay with DU-145 prostate, 3.52 µM; with U251 CNS, 4.27 µM; in the assay on HCT-15 colon, 3.66 µM. The GI50 is 3.5 µM in the assay on HS 578T breast and 2.06 µM with SK-MEL-5 melanoma. For the same compound, the TGI is over 100 µM with MALME-3M melanoma; over 100 µM with SNB-19 CNS; 4.38 µM in the assay with NCI-H522 lung; 25.6 µM in the assay with DU-145 prostate; over 100 µM in the assay with U251 CNS; over 100 µM in the assay with HCT-15 colon. Also, the TGI turned out to be 31.4 µM in the assay with HS 578T breast and 5.32 µM with SK-MEL-5 melanoma.

As for `O=S(=O)(NCCNc1cc(-c2cn(-c3ccccc3)nc2-c2cccc(O)c2)ccn1)c1ccc(F)cc1`, the GI50 with MALME-3M melanoma is 1.73 µM; in the assay with SNB-19 CNS it was 3.72 µM; in the assay on NCI-H522 lung, 1.49 µM; in the assay on DU-145 prostate, 3.35 µM; in the assay with U251 CNS, 2.62 µM; in the assay on HCT-15 colon, 1.8 µM. For the same compound, the GI50 in the assay with HS 578T breast is 2.94 µM; in the assay on SK-MEL-5 melanoma, 1.73 µM. Also, the TGI in the assay on MALME-3M melanoma turned out to be 3.88 µM; in the assay with SNB-19 CNS, 31.7 µM; in the assay on NCI-H522 lung it was 3.79 µM; in the assay on DU-145 prostate it was 16.8 µM; in the assay with U251 CNS, 7.85 µM; in the assay on HCT-15 colon, 5.75 µM. Also, the TGI in the assay on HS 578T breast is over 100 µM; in the assay with SK-MEL-5 melanoma, 3.22 µM.

`O=C(CCc1ccc(O)c(O)c1)c1ccc(O)c(O)c1O`: the TGI in the assay on MALME-3M melanoma is over 100 µM; in the assay with SNB-19 CNS, over 100 µM; in the assay on NCI-H522 lung it was 41.1 µM; with DU-145 prostate, 37.2 µM; with U251 CNS it was 62.4 µM; with HCT-15 colon, 33 µM. Also, the TGI was over 100 µM in the assay on HS 578T breast and 36.3 µM in the assay on SK-MEL-5 melanoma.

In the case of `CN1CCN(Cc2ccc(NC(=O)c3[nH]ncc3Nc3ccnc4ccsc34)cc2)CC1`, the GI50 with MALME-3M melanoma was 3.44 µM; in the assay with SNB-19 CNS, 2.81 µM; with NCI-H522 lung it was 1.98 µM; in the assay on DU-145 prostate it was 2.17 µM; with U251 CNS, 2.4 µM; with HCT-15 colon, 3.25 µM. For the same compound, the GI50 was 2.09 µM in the assay with HS 578T breast and 2.48 µM with SK-MEL-5 melanoma. For the same compound, the TGI in the assay with MALME-3M melanoma worked out at 13.7 µM; with SNB-19 CNS it was 20.2 µM; in the assay with NCI-H522 lung it was 13.5 µM; in the assay on DU-145 prostate, 11.6 µM; in the assay with U251 CNS it was 13.6 µM; in the assay on HCT-15 colon, 16.1 µM. Moreover, the TGI in the assay with HS 578T breast stood at 14.4 µM; with SK-MEL-5 melanoma, 11.5 µM.

As for `O=C1C=CC(=O)N1c1ccc2c(c1)Cc1cc(NC(=O)C(F)(F)F)ccc1-2`, the TGI is 40.1 µM with MALME-3M melanoma; over 65.5 µM in the assay on SNB-19 CNS; 11.3 µM in the assay with NCI-H522 lung; 30.5 µM with DU-145 prostate; 34 µM in the assay with U251 CNS; 26.9 µM in the assay on HCT-15 colon. In addition, the results for the TGI with HS 578T breast and with SK-MEL-5 melanoma were 51.9 µM and over 100 µM, respectively.

On to `c1cncc(-c2cc(-c3cc(-c4cccnc4)n[nH]3)[nH]n2)c1`, for which the TGI in the assay with MALME-3M melanoma, in the assay on SNB-19 CNS, in the assay on NCI-H522 lung, in the assay with DU-145 prostate, in the assay on U251 CNS and in the assay with HCT-15 colon was over 100 µM in each case. Further, the TGI in the assay on HS 578T breast and in the assay on SK-MEL-5 melanoma was over 100 µM throughout.

In the case of `C/C(=C\c1ccn(-c2ccc(N)cc2C(F)(F)F)n1)[C@@H]1C[C@@H]2O[C@]2(C)CCC[C@H](C)[C@H](O)[C@@H](C)C(=O)C(C)(C)[C@@H](O)CC(=O)O1`, the GI50 in the assay on MALME-3M melanoma is 0.736 µM; in the assay on SNB-19 CNS it was 0.553 µM; in the assay on NCI-H522 lung it was 0.178 µM; in the assay with DU-145 prostate, 0.401 µM; with U251 CNS, 0.386 µM; with HCT-15 colon, 0.429 µM. The GI50 was 0.399 µM with HS 578T breast and 0.356 µM in the assay with SK-MEL-5 melanoma. Besides, the TGI in the assay on MALME-3M melanoma is over 11.1 µM; in the assay with SNB-19 CNS, over 11.1 µM; in the assay on NCI-H522 lung it was 0.428 µM; in the assay on DU-145 prostate, 2.87 µM; with U251 CNS, over 11.1 µM; in the assay on HCT-15 colon, over 11.1 µM. Also, the TGI in the assay on HS 578T breast was 4.3 µM; with SK-MEL-5 melanoma it was over 11.1 µM.

For the compound `O=C1CN2CCC1C/C2=C\c1ccnc2c(Cl)cccc12` (stereo unspecified), the GI50 with MALME-3M melanoma is 91.9 µM; in the assay with SNB-19 CNS, over 100 µM; with NCI-H522 lung, 53.5 µM; in the assay on DU-145 prostate, over 100 µM; in the assay on U251 CNS it was 64.4 µM; in the assay on HCT-15 colon, 85.7 µM. For the same compound, the GI50 is over 100 µM in the assay on HS 578T breast and 31 µM in the assay on SK-MEL-5 melanoma. In addition, the TGI in the assay on MALME-3M melanoma, with SNB-19 CNS, in the assay on NCI-H522 lung, with DU-145 prostate, in the assay with U251 CNS and in the assay with HCT-15 colon was over 100 µM each time. For the same compound, the TGI in the assay on HS 578T breast and with SK-MEL-5 melanoma was over 100 µM in each case.

As to `Cc1cc(Nc2ncc(Cl)c(Nc3ccccc3S(=O)(=O)C(C)C)n2)c(OC(C)C)cc1C1CCNCC1`, the GI50 in the assay with MALME-3M melanoma is 0.857 µM and 0.265 µM; in the assay on SNB-19 CNS, 1.73 µM; with NCI-H522 lung, 1.52 µM; in the assay with DU-145 prostate, 1.41 µM and 1.53 µM and 1.29 µM; with U251 CNS, 1.39 µM; in the assay with HCT-15 colon, 1.21 µM. Also, the GI50 in the assay with HS 578T breast was 1.66 µM and 1.94 µM and 1.61 µM; with SK-MEL-5 melanoma, 1.4 µM. Moreover, the TGI was 2.25 µM and 1.25 µM in the assay with MALME-3M melanoma; 3.14 µM in the assay with SNB-19 CNS; 3.06 µM in the assay with NCI-H522 lung; 2.79 µM and 2.88 µM and 2.55 µM in the assay on DU-145 prostate; 2.72 µM in the assay with U251 CNS; 2.59 µM in the assay on HCT-15 colon. The TGI with HS 578T breast was 5.25 µM and 5.34 µM and 4.48 µM; in the assay on SK-MEL-5 melanoma, 2.73 µM.

The values are drawn from PubChem BioAssay (NCI).
